According to patent US10975070B2, “Ghrelin receptor agonist for treatment of cachexia” (RaQualia Pharma Inc., priority 2010, dated 2021):

Legend:
[1] = tested on: tumor-bearing mice prepared using a murine colon cancer cell line, CT26; assay: Inhibitory effect on weight loss of tumor-bearing mice (CT26 colon cancer transplant); format: in vivo, BALB/c mice
From the text: Inhibitory Effect on Weight Loss of Tumor-Bearing Mice
Tumor-bearing mice prepared using a murine colon cancer cell line, colon 26, are known to closely reproduce the symptoms of cancer cachexia (Cancer Research, 50, 4528-4532 (1990)). In this experiment, using tumor-bearing mice prepared using a murine colon cancer cell line, CT26, that was established in the same method as that for producing the murine colon cancer cell line, colon 26, (The Journal of Immunology, 154, 4685-4692 (1995)), Compound A of the present invention was evaluated for effects on the body weights of said mice. That is, CT26 colon cancer cells (5×10^6) were subcutaneously transplanted in the flank of BALB/c mice at 7 weeks of age. The transplanted mice were divided into two groups, and once every day from the following day of the transplantation, water for injection was orally administered to the control group, whereas Compound A was orally administered at a dose of 75 mg/kg to the compound administration group. The administered volume was […]. Five and ten days after the transplantation, the tumor size (major axis and minor axis) in each mouse was measured, and the tumor volume was calculated from the following formula: (major axis)×(minor axis)^2/2. In addition, the body weight of each mouse was measured daily after the transplantation. The tumor volume 5 and 10 days after the transplantation of the CT26 murine colon cancer cells, and the body weight 10 days after the transplantation are shown in Table 1. Data are expressed as the mean±standard error.

[2] = tested on: rats with transplanted cancer tissue (sarcoma cells induced by methylcholanthrene); assay: Inhibitory effect on weight loss of rats with transplanted cancer (methylcholanthrene-induced sarcoma); format: in vivo; conditions: once a day for 5 to 14 days from 6-7 days after transplantation, dose-dependent, result in words
From the text: Inhibitory Effect on Weight Loss of Rats with Transplanted Cancer
The effect of Compound A was examined using this model. Sarcoma cells induced by methylcholanthrene were subcutaneously injected into the abdomen of rats. The rats were reared in a normal environment for about eight days and in this way animals used to provide cancer were produced. An amount of 0.2 to 0.3 g of fresh cancer tissue obtained from the animals used to provide cancer was subcutaneously transplanted into the abdomen of rats under anesthesia. From 6 days to 7 days after the transplantation of the cancer, Compound A was administered once a day for 5 days to 14 days, and the body weight was daily measured.
An experiment was conducted on Compound B in the same manner as described above.

[3] = CT26 tumor-bearing BALB/c mice, 75 mg/kg orally once daily from the day after transplantation, mean ± standard error

Compound	Body weight 10 days after transplantation [1, 3]	Tumor volume 5 days after transplantation [1, 3]	Tumor volume 10 days after transplantation ([1]; CT26 tumor-bearing BALB/c mice, 75 mg/kg orally once daily from the day after transplantation, mean ± standard error, 75 mg/kg)	Effect on body weight 10 days after transplantation in comparison with the control group ([1]; CT26 tumor-bearing mice, 75 mg/kg orally, critical ratio of 0.1% or lower, result in words)	Effect on tumor volume in comparison with the control group ([1]; CT26 tumor-bearing mice, 75 mg/kg orally, result in words)	Progression of the weight loss in tumor-bearing animals [2]
CN1N=C2CCN(C(=O)[C@@H](COCc3ccccc3)NC(=O)C(C)(C)N)C[C@@]2(Cc2ccccc2)C1=O [Compound A, 2-amino-N-[2-(3a-(R)-benzyl-2-methyl-3-oxo-2,3,3a,4,6,7-hexahydro-pyrazolo[4,3-c]pyridin-5-yl)-1-(R)-benzyloxymethyl-2-oxo-ethyl]-isobutyramide]	22.3 ± 0.2 g	137 ± 8 mm^3	291±25 mm^3	significantly increased the body weight	not capable of reducing the tumor volume	significantly inhibited the progression of the weight loss
CC(C)(N)C(=O)N[C@H](COCc1ccc(F)cc1F)C(=O)N1CCC2=NN(CC(F)(F)F)C(=O)[C@]2(Cc2ccccn2)C1 [Compound B, 2-amino-N-[1-(R)-(2,4-difluoro-benzyloxymethyl)-2-oxo-2-(3-oxo-3a-(R)-pyridin-2-ylmethyl-2-(2,2,2-trifluoro-ethyl)-2,3,3a,4,6,7-hexahydro-pyrazolo[4,3-c]pyridin-5-yl)-ethyl]-2-methyl-propionamide]						significantly inhibited the progression of the weight loss
